{"source": "PubChem BioAssay AID2202554", "about": "(NIEHS Division of Translational Toxicology (DTT))", "note": "Results filed as inconclusive are left out. Calls of active or inactive are those of the source. No rule for the calls is given here."}
{"test_system": "S. typhimurium/E. coli reverse mutation, colony counts", "assay": "Bacterial reverse mutation test (aka Ames test) summary data", "in_short": "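S. typhimurium his⁻ strains (TA97–TA1538) and E. coli WP2 uvrA pKM101 trp⁻, dosed over a range with or without rat, hamster or mouse liver S9. Preincubated 20 min at 37° C (or plate incorporation), plated in agar, incubated usually two days. Revertant colonies counted against negative controls.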"}
{"smiles": "CC[C@H]1OC(=O)[C@H](C)[C@@H](O[C@H]2C[C@@](C)(OC)[C@@H](O)[C@H](C)O2)[C@H](C)[C@@H](O[C@@H]2O[C@H](C)C[C@H](N(C)C)[C@H]2O)[C@](C)(O)C[C@@H](C)C(=O)[C@H](C)[C@@H](O)[C@]1(C)O", "outcome": "inactive; negative"}
{"smiles": "O=C(O)C(F)(F)C(F)(F)C(F)(F)C(F)(F)C(F)(F)C(F)(F)C(F)(F)C(F)(F)F", "outcome": "inactive; negative"}
{"smiles": "O=NN(CCO)CCO", "outcome": "active; positive"}
{"smiles": "CCCC(CCC)C(=O)O", "outcome": "inactive; negative"}
{"smiles": "Brc1ccccc1-c1ccccc1", "outcome": "inactive; negative"}
{"smiles": "CCCCCCc1ccc(-c2ccc(C#N)cc2)cc1", "outcome": "inactive; negative"}
{"smiles": "S=[Se]", "outcome": "active; positive"}
{"smiles": "CCOc1ccc(N=Nc2ccc(-c3ccc(N=Nc4c(O)ccc5cc(S(=O)(=O)O)cc(S(=O)(=O)O)c45)c(C)c3)cc2C)cc1", "outcome": "inactive; negative"}
{"smiles": "CCOCCOC(C)=O", "outcome": "active; positive"}
{"smiles": "C[C@]12CCC(=O)C=C1CC[C@@H]1[C@@H]2CC[C@]2(C)C(=O)CC[C@@H]12", "outcome": "inactive; negative"}
{"smiles": "OCCOCCO", "outcome": "inactive; negative"}
{"smiles": "CCN(CC)CCN1C(=O)CN=C(c2ccccc2F)c2cc(Cl)ccc21", "outcome": "inactive; negative"}
{"smiles": "Cc1ccc(N)c([N+](=O)[O-])c1", "outcome": "active; positive"}
{"smiles": "CC1OC(C)OC(C)O1", "note": "(configuration not stated)", "outcome": "active; positive"}
{"smiles": "CC(=O)Nc1ccccc1", "outcome": "inactive; negative"}
{"smiles": "OCCCCO", "outcome": "inactive; negative"}
{"smiles": "c1ccc(CSCc2ccccc2)cc1", "outcome": "inactive; negative"}
{"smiles": "Nc1cc(S(=O)(=O)O)cc2cc(S(=O)(=O)O)c(N=Nc3ccc(-c4ccc(N=Nc5c(S(=O)(=O)O)cc6cc(S(=O)(=O)O)cc(N)c6c5O)cc4)cc3)c(O)c12", "outcome": "inactive; negative"}
{"smiles": "Cc1cc(C(C)(C)C)c(O)c(C(C)(C)C)c1", "outcome": "inactive; negative"}
{"smiles": "O=[N+]([O-])c1cc([N+](=O)[O-])c2ccccc2c1", "outcome": "active; positive"}
{"smiles": "CCn1cc[n+](C)c1", "outcome": "inactive; negative"}
{"smiles": "Nc1cccc2c(=O)[nH][nH]c(=O)c12", "outcome": "inactive; negative"}
{"smiles": "COP(=O)(OC)OC=C(Cl)Cl", "outcome": "active; positive"}
{"smiles": "CNc1ccc(O)cc1", "outcome": "active; positive"}
{"smiles": "C1=CCCC=CCC1.C1=CCCC=CCC1.[Ni]", "outcome": "active; positive"}
{"smiles": "Cc1ccc2ccccc2c1", "outcome": "inactive; negative"}
{"smiles": "CC(=O)Nc1cccc(O)c1", "outcome": "inactive; negative"}
{"smiles": "COC(C)(C)C", "outcome": "inactive; negative"}
{"smiles": "C=CCC", "outcome": "inactive; negative"}
{"smiles": "C[C@]12CC[C@@H]3c4ccc(O)cc4CC[C@H]3[C@@H]1CC[C@@H]2O", "outcome": "inactive; negative"}
{"smiles": "COc1cc(OC)c(OC)cc1C=O", "outcome": "inactive; negative"}
{"smiles": "ICCc1ccccc1", "outcome": "inactive; negative"}
{"smiles": "C1CCC2CCCCC2C1", "note": "(configuration not stated)", "outcome": "inactive; negative"}
{"smiles": "CS(=O)(=O)OCCCCOS(C)(=O)=O", "outcome": "active; positive"}
{"smiles": "SCCc1cnccn1", "outcome": "inactive; negative"}
{"smiles": "CC[n+]1c(-c2ccccc2)c2cc(N)ccc2c2ccc(N)cc21", "outcome": "active; positive"}
{"smiles": "OCC#CCO", "outcome": "inactive; negative"}
{"smiles": "Cc1ccc(Nc2ccc(Nc3ccc(C)cc3S(=O)(=O)O)c3c2C(=O)c2ccccc2C3=O)c(S(=O)(=O)O)c1", "outcome": "active; weakly positive"}
{"smiles": "COc1ccc(OC)cc1", "outcome": "inactive; negative"}
{"smiles": "COC(=O)C1=C(C)NC(C)=C(C(=O)OC)C1c1ccccc1[N+](=O)[O-]", "outcome": "inactive; negative"}
{"smiles": "CN(C)C(=S)[S-].CN(C)C(=S)[S-].[Pb+2]", "outcome": "active; positive"}
{"smiles": "CCCCOCC1CO1", "note": "(configuration not stated)", "outcome": "active; positive"}
{"smiles": "C(=C\\c1ccccc1)/c1ccccc1", "outcome": "inactive; negative"}
{"smiles": "CCOC(=O)CC", "outcome": "inactive; negative"}
{"smiles": "CCCCOC(=O)c1ccccc1C(=O)OCCCC", "outcome": "inactive; negative"}
{"smiles": "Nc1ccccc1S(=O)(=O)O", "outcome": "active; weakly positive"}
{"smiles": "Oc1cccc(Cl)c1", "outcome": "inactive; negative"}
{"smiles": "O=C(Cl)c1ccc([N+](=O)[O-])cc1", "outcome": "active; positive"}
{"smiles": "CCCNCCC", "outcome": "inactive; negative"}
{"smiles": "CCC(C(N)=O)(C(N)=O)c1ccccc1", "outcome": "active; weakly positive"}
{"smiles": "CC(O)COC(C)(C)C", "note": "(configuration not stated)", "outcome": "active; positive"}
{"smiles": "CC(C)NCC(O)c1ccc(O)c(O)c1", "note": "(configuration not stated)", "outcome": "active; weakly positive"}
{"smiles": "Cc1ccc(N)cc1C", "outcome": "active; positive"}
{"smiles": "CCCCCCCCCCC1CO1", "note": "(configuration not stated)", "outcome": "inactive; negative"}
{"smiles": "C=CCc1ccc(O)c(OC)c1", "outcome": "inactive; negative"}
{"smiles": "O=CC=Cc1ccco1", "outcome": "inactive; negative"}
{"smiles": "Cc1ccccc1N=Nc1c(O)ccc2ccccc12", "outcome": "active; positive"}
{"smiles": "COc1ccc(C=O)cc1OC", "outcome": "inactive; negative"}
{"smiles": "O=[N+]([O-])c1cccc(O)c1", "outcome": "active; weakly positive"}
{"smiles": "Oc1ccc(C(c2ccc(O)cc2)(C(F)(F)F)C(F)(F)F)cc1", "outcome": "inactive; negative"}
{"smiles": "CCCCCCCC/C=C\\CCCCCCCC(=O)N(CCO)CCO", "outcome": "inactive; negative"}
{"smiles": "CN(C)[C@@H]1C(=O)C(C(N)=O)=C(O)[C@@]2(O)C(=O)C3=C(O)c4c(O)cccc4[C@@](C)(O)[C@H]3[C@H](O)[C@@H]12", "outcome": "inactive; negative"}
{"smiles": "CC[N+](=O)[O-]", "outcome": "inactive; negative"}
{"smiles": "OCc1c[nH]c2ccccc12", "outcome": "active; positive"}
{"smiles": "ClC(Cl)Cl", "outcome": "inactive; negative"}
{"smiles": "C=CC#N", "outcome": "active; positive"}
{"smiles": "Clc1ccc(COC(Cn2ccnc2)c2ccc(Cl)cc2Cl)cc1", "note": "(configuration not stated)", "outcome": "inactive; negative"}
{"smiles": "CCCC=O", "outcome": "inactive; negative"}
{"smiles": "OCCCBr", "outcome": "active; positive"}
{"smiles": "O=C(O)c1ccc([N+](=O)[O-])cc1", "outcome": "active; positive"}
{"smiles": "CCc1nc(N)nc(N)c1-c1ccc(Cl)cc1", "outcome": "inactive; negative"}
{"smiles": "C=C(C)CCl", "outcome": "active; weakly positive"}
{"smiles": "CON", "outcome": "inactive; negative"}
{"smiles": "CN(C)c1ccc(C(=C2C=CC(=[N+](C)C)C=C2)c2ccccc2)cc1", "outcome": "inactive; negative"}
{"smiles": "O=C(O)/C=C\\C(=O)O", "outcome": "inactive; negative"}
{"smiles": "Cc1cccc(N)c1", "outcome": "inactive; negative"}
{"smiles": "Nc1ncc([N+](=O)[O-])s1", "outcome": "active; positive"}
{"smiles": "CCCCNS(=O)(=O)c1ccccc1", "outcome": "inactive; negative"}
{"smiles": "CCCC(=O)c1cc(O)c(O)cc1O", "outcome": "active; positive"}
{"smiles": "C=CC=O", "outcome": "active; weakly positive"}
{"smiles": "O=[N+]([O-])C(Br)=Cc1ccccc1", "outcome": "active; positive"}
{"smiles": "Oc1c(Cl)cc(Cl)c(Cl)c1Cc1c(O)c(Cl)cc(Cl)c1Cl", "outcome": "inactive; negative"}
{"smiles": "COC(=O)[C@H]1[C@H]2C[C@@H]3c4[nH]c5cc(OC)ccc5c4CCN3C[C@H]2C[C@@H](OC(=O)/C=C/c2cc(OC)c(OC)c(OC)c2)[C@@H]1OC", "outcome": "inactive; negative"}
{"smiles": "c1ccc2scnc2c1", "outcome": "inactive; negative"}
{"smiles": "c1ccc(SCCSc2ccccc2)cc1", "outcome": "inactive; negative"}
{"smiles": "CCCCCCCCc1ccc(Nc2ccc(CCCCCCCC)cc2)cc1", "outcome": "inactive; negative"}
{"smiles": "O=C1C=C(O)c2ccccc2C1=O", "outcome": "active; positive"}
{"smiles": "Cc1ccc2cccnc2c1", "outcome": "active; positive"}
{"smiles": "O=c1c(-c2ccc(O)cc2)coc2cc(O)cc(O)c12", "outcome": "active; positive"}
{"smiles": "ClC(Cl)Br", "outcome": "inactive; negative"}
{"smiles": "CC(C)=CCl", "outcome": "active; positive"}
{"smiles": "COCC1CO1", "note": "(configuration not stated)", "outcome": "active; positive"}
{"smiles": "CC(=O)OCC(COC(C)=O)OC(C)=O", "outcome": "inactive; negative"}
{"smiles": "OCCBr", "outcome": "active; positive"}
{"smiles": "FC(F)(F)c1cccc(Cl)c1", "outcome": "inactive; negative"}
{"smiles": "CCN(CC)C(=S)S", "outcome": "inactive; negative"}
{"smiles": "COc1ccccc1O", "outcome": "inactive; negative"}
{"smiles": "CCCCCCOCC1CO1", "note": "(configuration not stated)", "outcome": "active; positive"}
{"smiles": "Nc1cccc(S(=O)(=O)O)c1", "outcome": "inactive; negative"}
{"smiles": "O=C(O)c1cc(=O)[nH]c(=O)[nH]1", "outcome": "inactive; negative"}
{"smiles": "Clc1ccc(N=Nc2ccc(Cl)c(Cl)c2)cc1Cl", "outcome": "active; positive"}
{"smiles": "C=CCOC(=O)c1ccccc1N", "outcome": "inactive; negative"}
{"smiles": "CCC(=O)C=CC1C(C)=CCCC1(C)C", "note": "(configuration not stated)", "outcome": "inactive; negative"}
{"smiles": "C1CCCC1", "outcome": "inactive; negative"}
{"smiles": "c1ccc2c(c1)Nc1ccccc1S2", "outcome": "inactive; negative"}
{"smiles": "CCc1cccc(N)c1", "outcome": "inactive; negative"}
{"smiles": "CC(=O)CC(N)=O", "outcome": "active; positive"}
{"smiles": "CC(=O)Nc1ccc(O)cc1", "outcome": "inactive; negative"}
{"smiles": "Nc1cc(Cl)cc(S(=O)(=O)O)c1O", "outcome": "inactive; negative"}
{"smiles": "CCC[N+](=O)[O-]", "outcome": "inactive; negative"}
{"smiles": "CC(Cl)(Cl)[N+](=O)[O-]", "outcome": "active; positive"}
{"smiles": "O=NN1CCCCC1", "outcome": "active; positive"}
{"smiles": "CCCCN(CC)CC", "outcome": "inactive; negative"}
{"smiles": "Cc1ccc(C#N)cc1", "outcome": "inactive; negative"}
{"smiles": "CCCC(=O)O", "outcome": "inactive; negative"}
{"smiles": "CCOCCOCC", "outcome": "active; positive"}
{"smiles": "OC[C@@]1(O)CO[C@](O)(CO)CO1", "outcome": "active; positive"}
{"smiles": "CC[C@H]1CN2CCc3cc(OC)c(OC)cc3[C@@H]2C[C@@H]1C[C@H]1NCCc2cc(OC)c(OC)cc21", "outcome": "inactive; negative"}
{"smiles": "Nc1ccccc1C(=O)O", "outcome": "inactive; negative"}
{"smiles": "Cc1ccc2c(c1N)C(=O)c1ccccc1C2=O", "outcome": "active; positive"}
{"smiles": "O=C1c2c(O)ccc(Nc3ccc(CCO)cc3)c2C(=O)c2c([N+](=O)[O-])ccc(O)c21", "outcome": "active; positive"}
{"smiles": "Nc1c(N=Nc2ccc([N+](=O)[O-])cc2)c(S(=O)(=O)O)cc2cc(S(=O)(=O)O)c(N=Nc3ccccc3)c(O)c12", "outcome": "active; positive"}
{"smiles": "Cc1cc(C)cc(N)c1", "outcome": "active; weakly positive"}
{"smiles": "O=C(O)c1ccc(C(=O)O)cc1", "outcome": "inactive; negative"}
{"smiles": "COc1cc(Cc2cnc(N)nc2N)cc(OC)c1OC", "outcome": "inactive; negative"}
{"smiles": "O=C(O)CC(C(=O)O)C(CC(=O)O)C(=O)O", "note": "(configuration not stated)", "outcome": "active; positive"}
{"smiles": "CC(=O)Oc1ccccc1C(=O)O", "outcome": "inactive; negative"}
